Data published in ChEMBL document CHEMBL4346729, “The discovery of novel 3-aryl-indazole derivatives as peripherally restricted pan-Trk inhibitors for the treatment of pain” (Bioorg Med Chem Lett, 2019).
Activity calls are given as the source filed them. The calls are words filed in the database; no cut-off is given here.

Key:
[1] = target: Serine/threonine-protein kinase D2 (Homo sapiens) (UniProt Q9BZL6); assay: Inhibition of PRKD2 (unknown origin) at 20 nM using phosphatidylserine as substrate incubated for 60 mins in presence of [33P]-ATP by scintillation counting method
[2] = Unbound drug level in brain of CFA induced Sprague-Dawley rat at 100 mg/kg, po after 1 hr; format: ADME, organism-based; settings: in vivo
[3] = target: Insulin receptor (Homo sapiens) (UniProt P06213); assay: Inhibition of recombinant human N-terminal GST/His6-tagged INS-R C-terminal (G989 to S1382) expressed in Sf9 insect cells at 20 nM using phosphatidylserine as substrate incubated for 60 mins in presence of [33P]-ATP by scintillation counting method
Chain of Insulin receptor (Homo sapiens) (P06213 28-758 limits assumed): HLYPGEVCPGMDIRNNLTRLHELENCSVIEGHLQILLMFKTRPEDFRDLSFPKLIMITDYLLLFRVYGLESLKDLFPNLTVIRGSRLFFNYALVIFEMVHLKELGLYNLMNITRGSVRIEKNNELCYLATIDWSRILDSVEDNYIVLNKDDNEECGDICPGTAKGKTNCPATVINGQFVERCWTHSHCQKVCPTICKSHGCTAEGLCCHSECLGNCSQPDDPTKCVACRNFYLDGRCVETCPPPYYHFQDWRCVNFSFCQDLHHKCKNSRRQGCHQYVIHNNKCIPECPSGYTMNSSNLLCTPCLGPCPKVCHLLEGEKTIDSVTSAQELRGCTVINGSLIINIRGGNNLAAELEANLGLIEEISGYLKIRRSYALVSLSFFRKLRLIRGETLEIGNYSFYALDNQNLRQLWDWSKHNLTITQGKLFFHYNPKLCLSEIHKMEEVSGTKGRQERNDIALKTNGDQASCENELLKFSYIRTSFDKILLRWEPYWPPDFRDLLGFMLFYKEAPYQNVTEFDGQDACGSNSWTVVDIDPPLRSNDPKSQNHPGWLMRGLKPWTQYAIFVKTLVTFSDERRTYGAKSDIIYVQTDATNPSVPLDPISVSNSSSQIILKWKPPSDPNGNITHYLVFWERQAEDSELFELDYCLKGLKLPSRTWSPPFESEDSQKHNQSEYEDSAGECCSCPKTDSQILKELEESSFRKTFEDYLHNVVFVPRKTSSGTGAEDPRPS
Chain of Insulin receptor (Homo sapiens) (P06213 763-1382 limits assumed): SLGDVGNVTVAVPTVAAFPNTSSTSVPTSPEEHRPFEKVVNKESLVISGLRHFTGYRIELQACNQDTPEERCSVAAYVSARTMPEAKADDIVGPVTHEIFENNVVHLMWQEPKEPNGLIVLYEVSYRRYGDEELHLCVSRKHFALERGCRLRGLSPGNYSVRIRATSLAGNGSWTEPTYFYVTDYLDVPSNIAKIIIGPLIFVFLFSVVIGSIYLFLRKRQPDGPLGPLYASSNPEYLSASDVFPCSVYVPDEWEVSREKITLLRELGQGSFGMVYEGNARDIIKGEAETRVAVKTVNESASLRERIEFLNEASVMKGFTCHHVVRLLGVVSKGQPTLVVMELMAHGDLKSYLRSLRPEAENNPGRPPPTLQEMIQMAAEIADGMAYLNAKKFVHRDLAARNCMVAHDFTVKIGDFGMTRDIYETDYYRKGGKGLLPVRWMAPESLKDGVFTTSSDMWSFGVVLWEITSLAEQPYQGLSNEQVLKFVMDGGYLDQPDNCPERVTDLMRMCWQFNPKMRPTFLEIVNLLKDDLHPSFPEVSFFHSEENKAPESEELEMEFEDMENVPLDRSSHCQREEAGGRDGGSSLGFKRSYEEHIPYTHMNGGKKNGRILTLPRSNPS

[4] = target: Serine/threonine-protein kinase Chk2 (Homo sapiens) (UniProt O96017); assay: Inhibition of CHK2 (unknown origin) at 20 nM using phosphatidylserine as substrate incubated for 60 mins in presence of [33P]-ATP by scintillation counting method
Chain of Serine/threonine-protein kinase Chk2 (Homo sapiens) (O96017 whole entry): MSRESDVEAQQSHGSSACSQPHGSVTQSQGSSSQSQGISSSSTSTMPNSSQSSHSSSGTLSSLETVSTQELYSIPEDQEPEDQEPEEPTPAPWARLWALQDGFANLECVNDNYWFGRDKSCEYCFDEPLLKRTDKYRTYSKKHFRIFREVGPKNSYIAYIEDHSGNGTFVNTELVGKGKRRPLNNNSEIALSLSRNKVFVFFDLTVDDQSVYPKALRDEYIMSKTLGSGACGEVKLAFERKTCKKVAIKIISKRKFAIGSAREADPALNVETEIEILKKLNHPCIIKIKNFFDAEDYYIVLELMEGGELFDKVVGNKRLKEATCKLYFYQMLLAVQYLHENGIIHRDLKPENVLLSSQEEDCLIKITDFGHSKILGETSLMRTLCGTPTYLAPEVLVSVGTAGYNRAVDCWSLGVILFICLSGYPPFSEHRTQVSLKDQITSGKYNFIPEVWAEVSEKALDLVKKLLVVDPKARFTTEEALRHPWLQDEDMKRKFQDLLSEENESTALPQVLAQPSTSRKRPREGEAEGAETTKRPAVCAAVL

[5] = Cmax in Sprague-Dawley rat at 5 mg/kg, po; format: ADME, organism-based; parameters: dose 5 mg/kg, route oral; settings: in vivo
[6] = target: Serine/threonine-protein kinase Sgk1 (Homo sapiens) (UniProt O00141); assay: Inhibition of recombinant human full length N-terminal GST and C-terminal His6-tagged SGK1 (M1 to L431) expressed in Sf9 insect cells at 20 nM using phosphatidylserine as substrate incubated for 60 mins in presence of [33P]-ATP by scintillation counting method
Rattus norvegicus [7] = assay: Antinociceptive activity in CFA induced thermal hypersensitivity Sprague-Dawley rat model assessed as increase in paw withdrawal latency at 0.8 mg/kg, po after 1 hr; format: functional, organism-based
[8] = target: Tyrosine-protein kinase SYK (Homo sapiens) (UniProt P43405); assay: Inhibition of recombinant human full length N-terminal GST and C-terminal His6-tagged SYK (M1 to N635) expressed in Sf9 insect cells at 20 nM using phosphatidylserine as substrate incubated for 60 mins in presence of [33P]-ATP by scintillation counting method
[9] = Intrinsic clearance in human liver microsomes; format: ADME, Microsome; settings: read-out: CLH
[10] = target: Casein kinase II subunit alpha (Homo sapiens) (UniProt P68400); assay: Inhibition of recombinant human full length N-terminal GST and C-terminal His6-tagged CK2-alpha (M1 to Q391) expressed in Sf9 insect cells at 20 nM using phosphatidylserine as substrate incubated for 60 mins in presence of [33P]-ATP by scintillation counting method
[11] = target: Ribosomal protein S6 kinase alpha-1 (Homo sapiens) (UniProt Q15418); assay: Inhibition of RPS6KA1 (unknown origin) at 20 nM using phosphatidylserine as substrate incubated for 60 mins in presence of [33P]-ATP by scintillation counting method
[12] = target: RAC-alpha serine/threonine-protein kinase (Homo sapiens) (UniProt P31749); assay: Inhibition of recombinant human N-terminal GST/His6-tagged and C-terminal His6-tagged AKT1(V106 to A480) expressed in Sf9 insect cells at 20 nM using phosphatidylserine as substrate incubated for 60 mins in presence of [33P]-ATP by scintillation counting method
Chain of RAC-alpha serine/threonine-protein kinase (Homo sapiens) (P31749 whole entry): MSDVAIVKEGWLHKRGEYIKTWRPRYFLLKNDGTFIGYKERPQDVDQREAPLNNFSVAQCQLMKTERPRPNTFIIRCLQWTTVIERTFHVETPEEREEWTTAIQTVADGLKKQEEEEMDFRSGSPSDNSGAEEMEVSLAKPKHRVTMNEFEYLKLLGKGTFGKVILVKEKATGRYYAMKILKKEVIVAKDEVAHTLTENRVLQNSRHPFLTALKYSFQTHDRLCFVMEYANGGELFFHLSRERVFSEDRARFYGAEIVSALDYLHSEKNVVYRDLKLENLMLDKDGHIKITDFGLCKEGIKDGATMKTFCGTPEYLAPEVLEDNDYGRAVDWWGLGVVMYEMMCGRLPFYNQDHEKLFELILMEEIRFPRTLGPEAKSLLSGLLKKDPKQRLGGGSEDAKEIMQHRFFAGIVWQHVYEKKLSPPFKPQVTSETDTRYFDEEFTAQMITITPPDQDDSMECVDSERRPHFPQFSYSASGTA

[13] = target: Serine/threonine-protein kinase PAK 2 (Homo sapiens) (UniProt Q13177); assay: Inhibition of recombinant human N-terminal GST/His6-tagged PAK2 (D3 to R524) expressed in Sf9 insect cells at 20 nM using phosphatidylserine as substrate incubated for 60 mins in presence of [33P]-ATP by scintillation counting method
Chain of Serine/threonine-protein kinase PAK 2 (Homo sapiens) (Q13177 whole entry): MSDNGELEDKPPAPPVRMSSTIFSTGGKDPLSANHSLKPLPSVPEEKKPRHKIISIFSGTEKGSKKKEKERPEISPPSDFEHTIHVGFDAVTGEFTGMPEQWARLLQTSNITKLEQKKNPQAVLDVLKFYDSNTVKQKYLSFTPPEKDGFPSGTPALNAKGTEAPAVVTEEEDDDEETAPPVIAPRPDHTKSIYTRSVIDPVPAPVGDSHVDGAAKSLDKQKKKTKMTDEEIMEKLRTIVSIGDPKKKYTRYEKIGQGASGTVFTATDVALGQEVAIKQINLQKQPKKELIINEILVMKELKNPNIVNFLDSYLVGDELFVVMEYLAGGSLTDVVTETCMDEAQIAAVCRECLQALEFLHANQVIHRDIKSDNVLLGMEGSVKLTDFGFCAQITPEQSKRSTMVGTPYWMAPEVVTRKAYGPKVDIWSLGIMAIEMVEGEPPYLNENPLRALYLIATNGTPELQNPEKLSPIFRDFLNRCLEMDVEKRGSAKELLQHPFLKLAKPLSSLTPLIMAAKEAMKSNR

Rattus norvegicus [14] = assay: Antinociceptive activity in CFA induced thermal hypersensitivity Sprague-Dawley rat model assessed as increase in paw withdrawal latency at 4 mg/kg, po after 1 hr; format: functional, organism-based
[15] = target: MAP kinase-activated protein kinase 2 (Homo sapiens) (UniProt P49137); assay: Inhibition of recombinant human full length N-terminal GST/His6-tagged MAPKAPK2 (M1 to L370) expressed in Sf9 insect cells at 20 nM using phosphatidylserine as substrate incubated for 60 mins in presence of [33P]-ATP by scintillation counting method
Chain of MAP kinase-activated protein kinase 2 (Homo sapiens) (P49137 whole entry, looked up): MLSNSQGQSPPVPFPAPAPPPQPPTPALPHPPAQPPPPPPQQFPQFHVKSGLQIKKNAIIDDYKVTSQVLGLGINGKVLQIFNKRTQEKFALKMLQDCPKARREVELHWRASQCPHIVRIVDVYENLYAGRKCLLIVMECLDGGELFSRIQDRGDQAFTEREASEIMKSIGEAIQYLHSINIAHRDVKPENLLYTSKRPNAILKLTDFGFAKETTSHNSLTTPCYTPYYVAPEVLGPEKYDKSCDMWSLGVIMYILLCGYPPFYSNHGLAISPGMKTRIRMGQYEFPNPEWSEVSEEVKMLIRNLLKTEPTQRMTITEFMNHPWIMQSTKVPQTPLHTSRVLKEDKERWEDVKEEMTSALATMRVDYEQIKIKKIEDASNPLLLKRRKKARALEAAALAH

[16] = target: Activin receptor type-1 (Homo sapiens) (UniProt Q04771); assay: Inhibition of recombinant human N-terminal GST/His6-tagged ACVR1 C-terminal (A145 to C509) expressed in Sf9 insect cells at 20 nM using phosphatidylserine as substrate incubated for 60 mins in presence of [33P]-ATP by scintillation counting method
Chain of Activin receptor type-1 (Homo sapiens) (Q04771 whole entry): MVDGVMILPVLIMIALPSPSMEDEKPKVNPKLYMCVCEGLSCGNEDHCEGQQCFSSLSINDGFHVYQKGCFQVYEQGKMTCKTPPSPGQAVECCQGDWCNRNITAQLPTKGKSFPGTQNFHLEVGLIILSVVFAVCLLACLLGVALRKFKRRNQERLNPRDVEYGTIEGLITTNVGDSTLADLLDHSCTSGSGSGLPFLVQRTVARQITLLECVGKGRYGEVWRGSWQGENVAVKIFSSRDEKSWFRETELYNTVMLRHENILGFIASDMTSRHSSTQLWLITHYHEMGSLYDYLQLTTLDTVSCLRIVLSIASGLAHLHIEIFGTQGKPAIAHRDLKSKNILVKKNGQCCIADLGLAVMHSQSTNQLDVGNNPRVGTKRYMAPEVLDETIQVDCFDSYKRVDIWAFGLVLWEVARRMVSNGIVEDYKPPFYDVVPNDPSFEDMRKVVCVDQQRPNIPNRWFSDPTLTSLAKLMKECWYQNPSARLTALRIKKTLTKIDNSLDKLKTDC

[17] = target: Mitogen-activated protein kinase 3 (Homo sapiens) (UniProt P27361); assay: Inhibition of recombinant human full length N-terminal GST/His6-tagged ERK1 (M1 to P379) expressed in Escherichia coli at 20 nM using phosphatidylserine as substrate incubated for 60 mins in presence of [33P]-ATP by scintillation counting method
Chain of Mitogen-activated protein kinase 3 (Homo sapiens) (P27361 whole entry): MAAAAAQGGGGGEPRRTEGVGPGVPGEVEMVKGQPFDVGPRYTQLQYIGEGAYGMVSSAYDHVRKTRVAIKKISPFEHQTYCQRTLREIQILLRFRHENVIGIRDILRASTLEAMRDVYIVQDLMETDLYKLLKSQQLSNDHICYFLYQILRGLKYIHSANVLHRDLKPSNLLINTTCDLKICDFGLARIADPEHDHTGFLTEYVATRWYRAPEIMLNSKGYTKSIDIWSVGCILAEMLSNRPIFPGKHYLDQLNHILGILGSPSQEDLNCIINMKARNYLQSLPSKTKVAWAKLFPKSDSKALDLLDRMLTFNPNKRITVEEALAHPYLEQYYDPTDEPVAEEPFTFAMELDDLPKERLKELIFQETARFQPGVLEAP

[18] = target: Ribosomal protein S6 kinase beta-1 (Homo sapiens) (UniProt P23443); assay: Inhibition of recombinant human N-terminal GST/His6-tagged S6K internal ([…]) expressed in Sf9 insect cells at 20 nM using phosphatidylserine as substrate incubated for 60 mins in presence of [33P]-ATP by scintillation counting method
[19] = target: Protein kinase C beta type (Homo sapiens) (UniProt P05771); assay: Inhibition of recombinant human full length N-terminal GST/His6-tagged PKC-beta2 (M1 to S673) expressed in Sf9 insect cells at 20 nM using phosphatidylserine as substrate incubated for 60 mins in presence of [33P]-ATP by scintillation counting method
[20] = Protein binding in Sprague-Dawley rat plasma; format: ADME, cell-free; settings: read-out: PPB (converted)
[21] = Unbound drug level in brain of CFA induced Sprague-Dawley rat at 4 mg/kg, po after 1 hr; format: ADME, organism-based; settings: in vivo, BLD = below limit of detection
[22] = Protein binding in Sprague-Dawley rat brain; format: ADME, tissue-based; settings: read-out: PB (converted)
Rattus norvegicus [23] = assay: Unbound drug level in plasma of CFA induced Sprague-Dawley rat at 4 mg/kg, po after 1 hr; format: ADME, organism-based; settings: in vivo
Rattus norvegicus [24] = assay: Unbound drug level in plasma of CFA induced Sprague-Dawley rat at 0.8 mg/kg, po after 1 hr; format: ADME, organism-based; settings: in vivo
Homo sapiens = species: Homo sapiens; assay: Inhibition of PKA (unknown origin) at 20 nM using phosphatidylserine as substrate incubated for 60 mins in presence of [33P]-ATP by scintillation counting method
[25] = target: Proto-oncogene tyrosine-protein kinase Src (Homo sapiens) (UniProt P12931); assay: Inhibition of recombinant human full length N-terminal GST and C-terminal His6-tagged SRC (M1 to L536) expressed in Sf9 insect cells at 20 nM using phosphatidylserine as substrate incubated for 60 mins in presence of [33P]-ATP by scintillation counting method
Chain of Proto-oncogene tyrosine-protein kinase Src (Homo sapiens) (P12931 2-536 limits assumed): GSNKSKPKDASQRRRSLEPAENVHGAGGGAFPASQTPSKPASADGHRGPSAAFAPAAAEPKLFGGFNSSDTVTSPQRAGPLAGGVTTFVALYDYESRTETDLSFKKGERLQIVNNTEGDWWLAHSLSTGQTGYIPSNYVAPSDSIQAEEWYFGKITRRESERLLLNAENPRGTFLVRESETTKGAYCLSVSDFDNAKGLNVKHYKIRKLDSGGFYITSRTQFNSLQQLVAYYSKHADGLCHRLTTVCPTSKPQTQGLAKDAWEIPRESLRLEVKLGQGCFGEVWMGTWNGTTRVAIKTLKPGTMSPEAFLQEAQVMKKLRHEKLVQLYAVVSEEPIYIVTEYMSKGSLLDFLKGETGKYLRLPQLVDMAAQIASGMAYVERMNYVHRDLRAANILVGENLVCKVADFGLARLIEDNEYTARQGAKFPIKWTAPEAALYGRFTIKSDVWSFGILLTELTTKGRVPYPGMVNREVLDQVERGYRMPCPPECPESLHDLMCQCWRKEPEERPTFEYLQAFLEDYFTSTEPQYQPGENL

[26] = target: Cyclin-dependent kinase 2/cyclin E1 (Homo sapiens) (UniProt P24864+P24941); assay: Inhibition of CDK2/Cyclin-E1 (unknown origin) at 20 nM using Phosphatidylserine as substrate incubated for 60 mins in presence of [33P]-ATP by scintillation counting method; format: protein-complex assay
[27] = Ratio of drug level in brain to plasma of Sprague-Dawley rat at 2.5 mg/kg, ip; format: ADME, organism-based; settings: read-out: BPR

Cn1cc(-c2n[nH]c3ccc(NCc4cc(F)ccc4S(C)(=O)=O)cc23)cn1
inhibition [1]: -8% | Drug uptake(free) [2]: 3.5 nM | inhibition [3]: -7% | inhibition [4]: -1% | Cmax [5]: 161 nM | inhibition [6]: -1% | Activity (Rattus norvegicus [7]): inactive | inhibition [8]: 4% | CLint scaled [9]: 127 mL/min/kg | inhibition [10]: 7% | inhibition [11]: 7% | inhibition [12]: 6% | inhibition [13]: 12% | Activity (Rattus norvegicus [14]): Active | inhibition [15]: 19% | inhibition [16]: -2% | inhibition [17]: -9% | inhibition [18]: 3% | inhibition [19]: 5% | fraction unbound [20]: 0.134 | Drug uptake(free) [21]: Bld | fraction unbound [22]: 0.038 | Cp(f) (Rattus norvegicus [23]): 14.9 nM | Cp(f) (Rattus norvegicus [24]): 4.7 nM | inhibition (Homo sapiens): -8% | inhibition [25]: 2% | inhibition [26]: 5% | Kp [27]: 0.03
